Converted amounts (≈) assume the structure as drawn. Where two headings read alike, the source gives them in different places.
Columns and labels:
Format in all cases: in vivo
[1] = system: Sensitive Plutella xylostella; assay: Indoor test on 3rd-instar larvae of Plutella xylostella, sensitive insects (cabbage leaf dip); settings: foliar, read-out: LC50 (50% lethal concentration)
Method: (§1) Indoor test on 3rd-instar larvae of Plutella xylostella:
(§2) A wettable powder prepared as in Formulation Example 2 was diluted to a predetermined concentration. Cabbage leaves were dipped for 10 seconds in the resulting dilution and then air dried. The leaves were put into a polyvinyl chloride cup having a capacity of 90 ml together with 3rd-instar larvae of Plutella xylostella. The cup was left to stand in a constant temperature chamber kept at 25° C., and 72 hours later, the number of dead insects was examined. For each test area, the test was repeated twice, and 20 insects were used in each area. The ratio of the dead insects was calculated, and LC50 (50% lethal concentration) values of the test compounds were determined by the method of Bliss.
(§3) The sensitive Plutella xylostella insects in the table were those bred through generations at the Laboratory of Yashima Chemical Industrial Co., Ltd. The resistant ones were hunted at Tsumakoi-mura, Gunma-ken, Japan.

[2] = system: Resistant Plutella xylostella; assay: Indoor test on 3rd-instar larvae of Plutella xylostella, resistant insects (cabbage leaf dip); settings: foliar, read-out: LC50 (50% lethal concentration)
Method: as §1, §2, §3

[3] = system: Resistant Plutella xylostella; assay: Field test on Plutella xylostella (cabbage, spray); settings: larvae per 10 heads of cabbage, not sprayed = 100
Method: Field test on Plutella xylostella:
On predetermined dates, the number of larvae per 10 heads of cabbage was examined, and the corrected density indices of the test compounds were calculated in accordance with the following equation. [formula]

Thrips palmi = assay: Test on Thrips palmi (potted eggplants, spray); settings: eggplants in pots, not sprayed = 100
Method: An emulsifiable emulsion prepared as in Formulation Example 3 was diluted with water to a predetermined concentration. The dilution was sprayed on eggplants which were grown in pots and on which Thrips palmi was parasitic, so that the dilution fully dripped on the plant leaves. The number of dead insects was examined at predetermined dates, and the corrected density indices of the test compounds were calculated. For each area, the test was repeated three times.

## COP(=O)(NC(C)=O)SC (centres unmarked) [Acephate, O,S--dimethyl N--acetylphosphoramidothiolate, reference compound]
[1]; Plutella xylostella, 72 h
  LC50: 178 µg/mL (≈ 972 µM)
[2]; Plutella xylostella, 72 h
  LC50: 878 µg/mL (≈ 4790 µM)
[3]; 500 ppm
  Corrected density index After 3 days: 8
  Corrected density index After 7 days: 12
  Corrected density index After 14 days: 15

## CCC(C)c1ccccc1OC(=O)NC (centres unmarked) [BPMC, 2sec. butylphenylN--methyl carbamate, reference compound]
Thrips palmi; 250 ppm
  Corrected density index After 1 day: 7
  Corrected density index After 3 days: 35
  Corrected density index After 7 days: 57
Thrips palmi; 500 ppm
  Corrected density index After 1 day: 2
  Corrected density index After 3 days: 15
  Corrected density index After 7 days: 45

## CC(C)(C(=O)Nc1ccc(Br)cc1)c1ccc(Cl)cc1 [Compound No. 3]
[1]; Plutella xylostella, 72 h
  LC50: 57 µg/mL (≈ 162 µM)
[2]; Plutella xylostella, 72 h
  LC50: 51 µg/mL (≈ 145 µM)
[3]; 250 ppm
  Corrected density index After 3 days: 7
  Corrected density index After 7 days: 2
  Corrected density index After 14 days: 3
Thrips palmi; 250 ppm
  Corrected density index After 1 day: 16
  Corrected density index After 3 days: 8
  Corrected density index After 7 days: 14
Thrips palmi; 500 ppm
  Corrected density index After 1 day: 9
  Corrected density index After 3 days: 3
  Corrected density index After 7 days: 3

## CC(C)(C(=O)Nc1ccc(C(F)(F)F)cc1)c1ccc(Cl)cc1 [Compound No. 4]
[1]; Plutella xylostella, 72 h
  LC50: 95 µg/mL (≈ 278 µM)
[2]; Plutella xylostella, 72 h
  LC50: 96 µg/mL (≈ 281 µM)
[3]; 250 ppm
  Corrected density index After 3 days: 7
  Corrected density index After 7 days: 1
  Corrected density index After 14 days: 0
Thrips palmi; 250 ppm
  Corrected density index After 1 day: 19
  Corrected density index After 3 days: 8
  Corrected density index After 7 days: 11
Thrips palmi; 500 ppm
  Corrected density index After 1 day: 12
  Corrected density index After 3 days: 4
  Corrected density index After 7 days: 6

## CCN(C(=O)C(C)(C)c1ccc(Cl)cc1)c1ccc(Cl)cc1 [Compound No. 7]
[1]; Plutella xylostella, 72 h
  LC50: 51 µg/mL (≈ 152 µM)
[2]; Plutella xylostella, 72 h
  LC50: 53 µg/mL (≈ 158 µM)
[3]; 250 ppm
  Corrected density index After 3 days: 4
  Corrected density index After 7 days: 0
  Corrected density index After 14 days: 0
Thrips palmi; 250 ppm
  Corrected density index After 1 day: 16
  Corrected density index After 3 days: 9
  Corrected density index After 7 days: 13
Thrips palmi; 500 ppm
  Corrected density index After 1 day: 10
  Corrected density index After 3 days: 2
  Corrected density index After 7 days: 3

## COP(=O)(OC)OC=C(Cl)Cl [DDVP, 2,2-dichlorovinyl dimethyl phosphate, reference compound]
[1]; sensitive Plutella xylostella, 3rd-instar larvae, 72 hours, 25° C., wettable powder dilution, method of Bliss
  LC50: 103 µg/mL
[2]; resistant Plutella xylostella, 3rd-instar larvae, 72 hours, 25° C., wettable powder dilution, method of Bliss
  LC50: 1020 µg/mL
[3]; 500 ppm
  Corrected density index After 3 days: 15
  Corrected density index After 7 days: 52
  Corrected density index After 14 days: 86

## CC(C)(C(=O)Nc1ccc(F)cc1)c1ccc(Cl)cc1 [compound 1]
[1]; Plutella xylostella, 72 h
  LC50: 126 µg/mL (≈ 432 µM)
[2]; Plutella xylostella, 72 h
  LC50: 123 µg/mL (≈ 422 µM)

## CC(C)(C(=O)Nc1ccc(Cl)cc1)c1ccc(Cl)cc1 [compound 2, alpha,alpha-dimethyl-p-chlorophenylaceto-p-chloranilide]
[1]; Plutella xylostella, 72 h
  LC50: 101 µg/mL (≈ 328 µM)
[2]; Plutella xylostella, 72 h
  LC50: 110 µg/mL (≈ 357 µM)
[3]; 250 ppm
  Corrected density index After 3 days: 10
  Corrected density index After 7 days: 5
  Corrected density index After 14 days: 2
Thrips palmi; 250 ppm
  Corrected density index After 1 day: 16
  Corrected density index After 3 days: 14
  Corrected density index After 7 days: 14
Thrips palmi; 500 ppm
  Corrected density index After 1 day: 20
  Corrected density index After 3 days: 10
  Corrected density index After 7 days: 12

## CC(C)(C(=O)Nc1ccc(C#N)cc1)c1ccc(Cl)cc1 [compound 5]
[1]; Plutella xylostella, 72 h
  LC50: 97 µg/mL (≈ 325 µM)
[2]; Plutella xylostella, 72 h
  LC50: 90 µg/mL (≈ 301 µM)

## CN(C(=O)C(C)(C)c1ccc(Cl)cc1)c1ccc(Cl)cc1 [compound 6]
[1]; Plutella xylostella, 72 h
  LC50: 61 µg/mL (≈ 189 µM)
[2]; Plutella xylostella, 72 h
  LC50: 60 µg/mL (≈ 186 µM)

## CCCN(C(=O)C(C)(C)c1ccc(Cl)cc1)c1ccc(Cl)cc1 [compound 8]
[1]; Plutella xylostella, 72 h
  LC50: 198 µg/mL (≈ 565 µM)
[2]; Plutella xylostella, 72 h
  LC50: 204 µg/mL (≈ 582 µM)

## CCCCN(C(=O)C(C)(C)c1ccc(Cl)cc1)c1ccc(Cl)cc1 [compound 9]
[1]; Plutella xylostella, 72 h
  LC50: 372 µg/mL (≈ 1020 µM)
[2]; Plutella xylostella, 72 h
  LC50: 365 µg/mL (≈ 1000 µM)

## CCN(C(=O)C(C)(C)c1ccc(Cl)cc1)c1ccc(Br)cc1 [compound 10, alpha,alpha-dimethyl-p-chlorophenylaceto-N-ethyl-p-bromanilide]
[1]; Plutella xylostella, 72 h
  LC50: 48 µg/mL (≈ 126 µM)
[2]; Plutella xylostella, 72 h
  LC50: 46 µg/mL (≈ 121 µM)
[3]; 250 ppm
  Corrected density index After 3 days: 5
  Corrected density index After 7 days: 0
  Corrected density index After 14 days: 0
Thrips palmi; 250 ppm
  Corrected density index After 1 day: 12
  Corrected density index After 3 days: 12
  Corrected density index After 7 days: 11
Thrips palmi; 500 ppm
  Corrected density index After 1 day: 7
  Corrected density index After 3 days: 1
  Corrected density index After 7 days: 4

## CC(C)(C(=O)Nc1ccc(Cl)cc1)c1ccc(F)cc1 [compound 11]
[1]; Plutella xylostella, 72 h
  LC50: 107 µg/mL (≈ 367 µM)
[2]; Plutella xylostella, 72 h
  LC50: 111 µg/mL (≈ 380 µM)

## CC(C)(C(=O)Nc1ccc(C(F)(F)F)cc1)c1ccc(F)cc1 [compound 12]
[1]; Plutella xylostella, 72 h
  LC50: 95 µg/mL (≈ 292 µM)
[2]; Plutella xylostella, 72 h
  LC50: 110 µg/mL (≈ 338 µM)

## CCN(C(=O)C(C)(C)c1ccc(F)cc1)c1ccc(Cl)cc1 [compound 13]
[1]; Plutella xylostella, 72 h
  LC50: 74 µg/mL (≈ 231 µM)
[2]; Plutella xylostella, 72 h
  LC50: 73 µg/mL (≈ 228 µM)

## CCN(C(=O)C(C)(C)c1ccc(F)cc1)c1ccc(Br)cc1 [compound 14]
[1]; Plutella xylostella, 72 h
  LC50: 88 µg/mL (≈ 242 µM)
[2]; Plutella xylostella, 72 h
  LC50: 93 µg/mL (≈ 255 µM)

## CC(C)(C(=O)Nc1ccc(Cl)cc1)c1ccc(Br)cc1 [compound 15]
[1]; Plutella xylostella, 72 h
  LC50: 137 µg/mL (≈ 388 µM)
[2]; Plutella xylostella, 72 h
  LC50: 129 µg/mL (≈ 366 µM)

## CC(C)(C(=O)Nc1ccc(Cl)cc1)c1ccccc1F [compound 16]
[1]; Plutella xylostella, 72 h
  LC50: 320 µg/mL (≈ 1100 µM)
[2]; Plutella xylostella, 72 h
  LC50: 331 µg/mL (≈ 1130 µM)

## CC(C)(C(=O)Nc1ccc(C(F)(F)F)cc1)c1ccccc1F [compound 17]
[1]; Plutella xylostella, 72 h
  LC50: 281 µg/mL (≈ 864 µM)
[2]; Plutella xylostella, 72 h
  LC50: 256 µg/mL (≈ 787 µM)

## CN(C(=O)C(C)(C)c1ccccc1F)c1ccc(Cl)cc1 [compound 18]
[1]; Plutella xylostella, 72 h
  LC50: 213 µg/mL (≈ 697 µM)
[2]; Plutella xylostella, 72 h
  LC50: 211 µg/mL (≈ 690 µM)

## CC(C)(C(=O)Nc1ccc(Cl)cc1)c1ccc(Cl)cc1Cl [compound 19]
[1]; Plutella xylostella, 72 h
  LC50: 119 µg/mL (≈ 347 µM)
[2]; Plutella xylostella, 72 h
  LC50: 106 µg/mL (≈ 309 µM)

## CC(C)(C(=O)Nc1ccc(F)cc1)c1ccc(Cl)cc1Cl [compound 20]
[1]; Plutella xylostella, 72 h
  LC50: 122 µg/mL (≈ 374 µM)
[2]; Plutella xylostella, 72 h
  LC50: 128 µg/mL (≈ 392 µM)
